One molecule from BindingDB's records for PubMed 32771797 (Southern Medical University, 2020) can be followed below.

A short description of this assay: Inhibition of Severe acute respiratory syndrome coronavirus 2 MPro incubated for 24 hrs by plaque assay.

The molecule `O=C[C@H](C[C@@H]1CCNC1=O)NC(=O)[C@H](Cc1cccc(F)c1)NC(=O)c1cc2ccccc2[nH]1` [med.21724, Compound 62] had an EC50 of 720 nM.

Broadly, the EC50 is the midpoint of the concentration-response curve. The low end stands for greater potency, the high end for weaker potency.
